Molecules are shown by their SMILES. Calls of active or inactive are those of the source. No cut-off for these calls is given here. Where a SMILES comes first, the peptide text is derived from it. [ ]: non-standard residue; d: D form. Phe(4-NH2) = Nc1ccc(C[C@H](N)C(=O)O)cc1; Dmt = Cc1cc(O)cc(C)c1C[C@H](N)C(=O)O

For test [1], the system named is Cavia porcellus. The test can be described thus: Anti-tussive activity in citric acid-induced guniea pig cough model coadministered with citric acid. The test is classed as functional, organism-based.
Test [2] addresses Kappa-type opioid receptor (Homo sapiens, UniProt P41145). Briefly: Agonist activity at human kappa opioid receptor expressed in CHO cells assessed as stimulation of calcium mobilization by Fluo-4 AM dye based analysis. The test is classed as functional, cell-based.
Test [3] has as its target T1, Nociceptin receptor (Homo sapiens, UniProt P41146).
Description: Agonist activity at human NOP receptor expressed in CHO cells assessed as dynamic mass redistribution by DMR assay
Test [4] concerns the target T1, Nociceptin receptor. Briefly: Agonist activity at human NOP receptor expressed in CHO cells assessed as stimulation of calcium mobilization by Fluo-4 AM dye based analysis.
Test [5] deals with T2, Mu-type opioid receptor (Homo sapiens, UniProt P35372). The test can be described thus: Agonist activity at human mu opioid receptor expressed in CHO cells assessed as dynamic mass redistribution by DMR assay. The test is classed as functional, cell-based.
T2 sequence (P35372 whole entry): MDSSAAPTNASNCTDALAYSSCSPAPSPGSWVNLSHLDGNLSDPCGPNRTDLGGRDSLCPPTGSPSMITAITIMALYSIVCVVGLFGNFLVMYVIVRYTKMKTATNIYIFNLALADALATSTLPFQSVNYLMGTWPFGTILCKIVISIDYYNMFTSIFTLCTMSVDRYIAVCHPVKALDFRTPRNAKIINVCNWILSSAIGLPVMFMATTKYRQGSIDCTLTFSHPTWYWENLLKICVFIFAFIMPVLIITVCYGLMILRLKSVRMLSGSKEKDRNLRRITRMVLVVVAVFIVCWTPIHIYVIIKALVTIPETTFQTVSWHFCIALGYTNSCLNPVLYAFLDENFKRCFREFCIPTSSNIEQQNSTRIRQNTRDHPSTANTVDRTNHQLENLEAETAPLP
The next test has as its system CHO. Briefly: Concentration ratio of human NOP receptor expressed in CHO cells to human mu opioid receptor expressed in CHO cells. The test is classed as cell-based.
Test [6] has as its target T2, Mu-type opioid receptor. Briefly: Agonist activity at human mu opioid receptor expressed in CHO cells assessed as dynamic mass redistribution by DMR assay relative to control. The test is classed as functional, cell-based. Conditions: filed as agonist.
Test [7] deals with T2, Mu-type opioid receptor. Briefly: Agonist activity at human mu opioid receptor expressed in CHO cells assessed as stimulation of calcium mobilization by Fluo-4 AM dye based analysis.
Test [8] is filed under the species Cavia porcellus. Briefly: Anti-tussive activity in citric acid-induced guniea pig cough model assessed as reduction in cough number co- treated with nebulizer. The test is classed as functional, organism-based. The note with it: time 30.0 min.
Test [9] addresses T2, Mu-type opioid receptor. The note with it: CHO.

T1 sequence (P41146 whole entry): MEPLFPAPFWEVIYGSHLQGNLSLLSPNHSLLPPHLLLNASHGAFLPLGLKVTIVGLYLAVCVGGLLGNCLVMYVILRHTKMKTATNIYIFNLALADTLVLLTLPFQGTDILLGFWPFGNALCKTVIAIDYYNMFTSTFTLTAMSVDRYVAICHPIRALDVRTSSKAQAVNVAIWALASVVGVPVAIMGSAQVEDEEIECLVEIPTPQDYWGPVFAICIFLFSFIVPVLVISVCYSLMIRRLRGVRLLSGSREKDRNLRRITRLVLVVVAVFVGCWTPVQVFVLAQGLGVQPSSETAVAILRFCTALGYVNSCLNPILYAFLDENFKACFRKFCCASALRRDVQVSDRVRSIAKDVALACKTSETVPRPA
Kappa-type opioid receptor, sequence (P41145 whole entry): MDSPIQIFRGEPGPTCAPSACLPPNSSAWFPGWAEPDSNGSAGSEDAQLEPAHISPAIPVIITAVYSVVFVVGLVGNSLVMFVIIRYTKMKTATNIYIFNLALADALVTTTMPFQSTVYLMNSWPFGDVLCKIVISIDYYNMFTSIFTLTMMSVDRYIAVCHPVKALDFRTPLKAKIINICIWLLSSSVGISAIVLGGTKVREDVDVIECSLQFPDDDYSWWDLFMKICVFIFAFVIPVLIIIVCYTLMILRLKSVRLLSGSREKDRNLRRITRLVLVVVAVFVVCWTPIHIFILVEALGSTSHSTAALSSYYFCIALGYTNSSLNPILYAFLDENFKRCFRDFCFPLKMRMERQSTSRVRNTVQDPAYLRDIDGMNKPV

As for `Cc1cc(O)cc(C)c1C[C@H](NC(=O)[C@H](Cc1ccccc1)NC(=O)CNC(=O)CNC(=O)[C@@H](N)Cc1c(C)cc(O)cc1C)C(=O)NCC(=O)N[C@@H](C)C(=O)N[C@@H](CCCNC(=N)N)C(=O)N[C@@H](CCCCN)C(=O)N[C@@H](CO)C(=O)N[C@@H](C)C(=O)N[C@@H](CCCNC(=N)N)C(=O)N[C@@H](CCCCN)C(N)=O` (H-[Dmt]GGF[Dmt]GARKSARK-NH2), the result in the test with Cavia porcellus [1] was inactive. Moreover, the concentration for a half-maximal effect (EC50) is 3.24 nM in test [2]; 19.5 nM on Nociceptin receptor [3]; 4.07 nM at Nociceptin receptor [4]; 2.29 nM on Mu-type opioid receptor [5]; 8.32 nM on Mu-type opioid receptor [7]. Further, the Ratio in the test on CHO turned out to be 0.49. The Emax at Mu-type opioid receptor [6] turned out to be 202%. For the same compound, the result in the test listed under Cavia porcellus [8] was Active.

On to `C[C@H](NC(=O)CNC(=O)[C@@H](NC(=O)[C@H](Cc1ccccc1)NC(=O)CNC(=O)CNC(=O)[C@@H](N)Cc1ccccc1)[C@@H](C)O)C(=O)N[C@@H](CCCNC(=N)N)C(=O)N[C@@H](CCCCN)C(=O)N[C@@H](CO)C(=O)N[C@@H](C)C(=O)N[C@@H](CCCNC(=N)N)C(=O)N[C@@H](CCCCN)C(N)=O`, for which the pEC50 result on Mu-type opioid receptor [9] is “inactive”.

As for `Cc1cc(O)cc(C)c1C[C@H](N)C(=O)NCC(=O)NCC(=O)N[C@@H](Cc1ccccc1)C(=O)N[C@@H](Cc1ccc(N)cc1)C(=O)NCC(=O)N[C@@H](C)C(=O)N[C@@H](CCCNC(=N)N)C(=O)N[C@@H](CCCCN)C(=O)N[C@@H](CO)C(=O)N[C@@H](C)C(=O)N[C@@H](CCCNC(=N)N)C(=O)N[C@@H](CCCCN)C(N)=O` (H-[Dmt]GGF[Phe(4-NH2)]GARKSARK-NH2), the 50% effective concentration (EC50) at Nociceptin receptor [4] was 26.3 nM; on Mu-type opioid receptor [7], 15.1 nM. Also, the Ratio in the test with CHO was found to be 1.73.

Take `Cc1cc(O)cc(C)c1C[C@H](N)C(=O)NCC(=O)NCC(=O)N[C@@H](Cc1ccccc1)C(=O)N[C@H](C(=O)NCC(=O)N[C@@H](C)C(=O)N[C@@H](CCCNC(=N)N)C(=O)N[C@@H](CCCCN)C(=O)N[C@@H](CO)C(=O)N[C@@H](C)C(=O)N[C@@H](CCCNC(=N)N)C(=O)N[C@@H](CCCCN)C(N)=O)[C@@H](C)O`: the EC50 is 2.69 nM on Nociceptin receptor [4] and 42.7 nM on Mu-type opioid receptor [7]. In the test with CHO, the Ratio is 0.06.

`Cc1cc(O)cc(C)c1C[C@H](NC(=O)[C@H](Cc1ccccc1)NC(=O)CNC(=O)CNC(=O)[C@@H](N)Cc1ccc(O)cc1)C(=O)NCC(=O)N[C@@H](C)C(=O)N[C@@H](CCCNC(=N)N)C(=O)N[C@@H](CCCCN)C(=O)N[C@@H](CO)C(=O)N[C@@H](C)C(=O)N[C@@H](CCCNC(=N)N)C(=O)N[C@@H](CCCCN)C(N)=O` (H-YGGF[Dmt]GARKSARK-NH2): the EC50 on Nociceptin receptor [4] was 17.8 nM; on Mu-type opioid receptor [7], 195 nM. For the same compound, in the test with CHO, the Ratio was determined as 0.09.

The values above are taken from ChEMBL document CHEMBL5032494, “Novel Mixed NOP/Opioid Receptor Peptide Agonists” (J Med Chem, 2021).
